The source made the active and inactive calls. The rule behind the calls is not given here.
Experiments:
[1] = target: T1, Short transient receptor potential channel 5 (Homo sapiens) (UniProt Q9UL62); test: Inhibition of human TRPC5 expressed in HEK293T cells assessed as intracellular calcium influx at 30 uM measured after 30 mins by Fluo-4 AM dye based fluorescence analysis; format: cell-based
T1 sequence (whole entry): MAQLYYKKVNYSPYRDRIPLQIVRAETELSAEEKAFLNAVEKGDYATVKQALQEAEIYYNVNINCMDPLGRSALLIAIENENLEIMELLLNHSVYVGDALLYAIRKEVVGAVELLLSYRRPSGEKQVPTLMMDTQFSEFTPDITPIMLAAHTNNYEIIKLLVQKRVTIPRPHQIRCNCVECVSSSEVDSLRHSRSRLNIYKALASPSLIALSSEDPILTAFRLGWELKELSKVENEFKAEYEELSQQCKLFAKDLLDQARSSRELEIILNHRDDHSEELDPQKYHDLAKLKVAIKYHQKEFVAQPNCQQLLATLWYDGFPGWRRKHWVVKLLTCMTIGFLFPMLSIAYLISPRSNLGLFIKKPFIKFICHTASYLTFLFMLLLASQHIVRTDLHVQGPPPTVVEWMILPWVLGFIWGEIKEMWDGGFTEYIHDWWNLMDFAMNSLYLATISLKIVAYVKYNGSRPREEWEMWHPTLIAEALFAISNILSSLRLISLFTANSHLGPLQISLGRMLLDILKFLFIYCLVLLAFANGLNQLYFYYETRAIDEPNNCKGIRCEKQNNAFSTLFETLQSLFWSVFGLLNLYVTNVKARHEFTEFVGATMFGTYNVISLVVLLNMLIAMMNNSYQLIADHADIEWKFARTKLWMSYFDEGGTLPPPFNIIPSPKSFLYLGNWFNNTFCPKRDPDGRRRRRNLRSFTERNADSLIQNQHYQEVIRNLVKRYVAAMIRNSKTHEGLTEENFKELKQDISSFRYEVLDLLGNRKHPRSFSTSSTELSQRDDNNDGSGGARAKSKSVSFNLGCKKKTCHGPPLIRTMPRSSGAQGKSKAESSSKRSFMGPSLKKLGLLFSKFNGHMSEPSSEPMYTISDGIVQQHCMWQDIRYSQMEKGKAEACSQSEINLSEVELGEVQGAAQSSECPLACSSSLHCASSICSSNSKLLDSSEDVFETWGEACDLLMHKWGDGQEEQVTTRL

HEK-293T [2] = test: Cytotoxicity against human HEK293T cells expressing human TRPC5 assessed as reduction in cell viability at 100 uM incubated for 24 hrs by MTS assay; format: toxicity, cell-based
[3] = target: T2, Short transient receptor potential channel 5 (Homo sapiens, UniProt Q9UL62); test: Inhibition of human TRPC5 expressed in HEK293T cells assessed as intracellular calcium influx by measuring Ca2+ flow inhibition after 30 mins by Fluo-4 AM dye based fluorescence analysis; format: cell-based
T2 sequence (Q9UL62 whole entry): T1 sequence (whole entry)

HEK-293T [4] = test: Cytotoxicity against human HEK293T cells expressing human TRPC5 assessed as cell death incubated for 24 hrs by MTS assay; format: toxicity, cell-based

Row | inhibition [1] | IC50 [3] [µM] | SMILES | Activity (HEK-293T [2]) | Activity (HEK-293T [4])
1 | Active | 10.2 | O=C(Cc1cccc(F)c1)NCc1nnc2ccc(-c3ccc(F)cc3)nn12 | Non-Toxic | –
2 | Active | – | CC(c1ccccc1)n1c(CCCO)nc2ccccc21 (stereo unspecified) | – | Toxic
3 | – | 14.9 | c1ccc(Cn2c(NCc3ccco3)nc3ccccc32)cc1 | – | –

Reference: ChEMBL document CHEMBL5365522, “Discovery of potential novel TRPC5 inhibitors by virtual screening and bioassay” (Bioorg Med Chem, 2023)
